Experimental data reported in article PMC11003488 (Journal of Enzyme Inhibition and Medicinal Chemistry, 2023).

How the values were obtained:
786-0 = experiment: NCI-60 SRB growth inhibition, one-dose and five-dose; type: cell-based; conditions: Homo sapiens
SF-539 = experiment: as above; type: cell-based; conditions: Homo sapiens
SW-620 = experiment: as above; type: cell-based; conditions: Homo sapiens
SF-268 = experiment: as above; type: cell-based; conditions: Homo sapiens
HCT-116 = experiment: as above; type: cell-based; conditions: Homo sapiens
SK-MEL-2 = experiment: as above; type: cell-based; conditions: Homo sapiens
RPMI-8226 = experiment: as above; type: cell-based; conditions: Homo sapiens
IGROV1 = experiment: as above; type: cell-based; conditions: Homo sapiens
K-562 = experiment: as above; type: cell-based; conditions: Homo sapiens
[1] = system: NCI 60-cell line panel (full panel); experiment: NCI-60 SRB growth inhibition, full panel mean / MG-MID; type: cell-based, human
SK-MEL-28 = experiment: NCI-60 SRB growth inhibition, one-dose and five-dose; type: cell-based; conditions: Homo sapiens
T-47D = experiment: as above; type: cell-based; conditions: Homo sapiens, T47D
SN12C = experiment: as above; type: cell-based; conditions: Homo sapiens
CAKI-1 = experiment: as above; type: cell-based; conditions: Homo sapiens
OVCAR-3 = experiment: as above; type: cell-based; conditions: Homo sapiens
NCI-H522 = experiment: as above; type: cell-based; conditions: Homo sapiens
EKVX = experiment: as above; type: cell-based; conditions: Homo sapiens
OVCAR-5 = experiment: as above; type: cell-based; conditions: Homo sapiens
NCI-H322M = experiment: as above; type: cell-based; conditions: Homo sapiens
A498 = experiment: as above; type: cell-based; conditions: Homo sapiens
MOLT-4 = experiment: as above; type: cell-based; conditions: Homo sapiens
TK-10 = experiment: as above; type: cell-based; conditions: Homo sapiens
NCI-H23 = experiment: as above; type: cell-based; conditions: Homo sapiens
U251 = experiment: as above; type: cell-based; conditions: Homo sapiens
HL-60(TB) = experiment: cells; type: cell-based; conditions: Homo sapiens
HCT-15 = experiment: NCI-60 SRB growth inhibition, one-dose and five-dose; type: cell-based; conditions: Homo sapiens
A549/ATCC = experiment: as above; type: cell-based; conditions: Homo sapiens
RXF 393 = experiment: as above; type: cell-based; conditions: Homo sapiens
BT-549 = experiment: as above; type: cell-based; conditions: Homo sapiens
HOP-92 = experiment: as above; type: cell-based; conditions: Homo sapiens
MCF7 = experiment: as above; type: cell-based; conditions: Homo sapiens
OVCAR-8 = experiment: as above; type: cell-based; conditions: Homo sapiens
SNB-75 = experiment: as above; type: cell-based; conditions: Homo sapiens
NCI-H460 = experiment: as above; type: cell-based; conditions: Homo sapiens
SR = experiment: as above; type: cell-based; conditions: Homo sapiens
M14 = experiment: as above; type: cell-based; conditions: Homo sapiens
HCC-2998 = experiment: as above; type: cell-based; conditions: Homo sapiens
UACC-62 = experiment: as above; type: cell-based; conditions: Homo sapiens
PC-3 = experiment: as above; type: cell-based; conditions: Homo sapiens
NCI/ADR-RES = experiment: as above; type: cell-based; conditions: Homo sapiens
HS 578 T = experiment: as above; type: cell-based; conditions: Homo sapiens
SNB-19 = experiment: as above; type: cell-based; conditions: Homo sapiens
[2] = read-out: percent growth inhibition

SMILES: CC(=O)Nc1ccc(/C=C/C(=O)c2cccc(NCc3ccc(C)cc3)c2)cc1 [Compound 5f, (E)-N-(4–(3-(3-((4-methylbenzyl)amino)phenyl)-3-oxoprop-1-en-1-yl)phenyl)acetamide]
- GI50 (786-0; 786-0): 10.3 µM
- inhibition at 10 µM (786-0; 786-0, read-out: percent growth inhibition): 60.4%
- GI50 (SF-539; SF-539): 9.33 µM
- inhibition at 10 µM (SF-539; SF-539, read-out: percent growth inhibition): 153%
- GI50 (SW-620; SW-620): 2.17 µM
- inhibition at 10 µM (SW-620; SW-620, read-out: percent growth inhibition): 156%
- GI50 (SF-268; SF-268): 4.58 µM
- inhibition at 10 µM (SF-268; SF-268, read-out: percent growth inhibition): 45.8%
- GI50 (HCT-116; HCT-116, HCT-116, five-dose screening): 1.91 µM
- inhibition at 10 µM (HCT-116; HCT-116, read-out: percent growth inhibition): 179%
- GI50 (SK-MEL-2; SK-MEL-2): 11.5 µM
- inhibition at 10 µM (SK-MEL-2; SK-MEL-2, read-out: percent growth inhibition): 16.5%
- GI50 (RPMI-8226; RPMI-8226): 2.29 µM
- inhibition at 10 µM (RPMI-8226; RPMI-8226, read-out: percent growth inhibition): 105%
- GI50 (IGROV1; IGROV-1): 12.9 µM
- inhibition at 10 µM (IGROV1; IGROV-1, read-out: percent growth inhibition): 39%
- GI50 (K-562; K562): 3.04 µM
- inhibition at 10 µM (K-562; K562, read-out: percent growth inhibition): 64.2%
- GI50 ([1]; Homo sapiens, 60 cell, read-out: Full panel GI50 mean): 9.25 µM
- Full panel Mean GI % ([1]; mean over NCI-60 panel, single dose 10 µM): 61.75%
- GI50 (SK-MEL-28; SK-MEL-28): 15.2 µM
- inhibition at 10 µM (SK-MEL-28; SK-MEL-28, read-out: percent growth inhibition): 25%
- GI50 (T-47D): 10.2 µM
- inhibition at 10 µM (T-47D; [2]): 86.5%
- GI50 (SN12C): 7.76 µM
- inhibition at 10 µM (SN12C; [2]): 88%
- GI50 (CAKI-1; CAKI-1): 10.8 µM
- inhibition at 10 µM (CAKI-1; CAKI-1, read-out: percent growth inhibition): 23.2%
- GI50 (OVCAR-3; OVCAR-3): 3.19 µM
- inhibition at 10 µM (OVCAR-3; OVCAR-3, read-out: percent growth inhibition): 78%
- GI50 (NCI-H522; NCI-H522): 11 µM
- inhibition at 10 µM (NCI-H522; NCI-H522, read-out: percent growth inhibition): 106%
- GI50 (EKVX): 12.6 µM
- inhibition at 10 µM (EKVX; [2]): 20.9%
- GI50 (OVCAR-5; OVCAR-5): 18.5 µM
- inhibition at 10 µM (OVCAR-5; OVCAR-5, read-out: percent growth inhibition): 29.2%
- GI50 (NCI-H322M): 15.1 µM
- inhibition at 10 µM (NCI-H322M; [2]): 22.5%
- GI50 (A498; A498): 17.9 µM
- inhibition at 10 µM (A498; A498, read-out: percent growth inhibition): -0.63%
- GI50 (MOLT-4; MOLT-4): 2.69 µM
- inhibition at 10 µM (MOLT-4; MOLT-4, read-out: percent growth inhibition): 62%
- GI50 (TK-10; TK-10): 13.8 µM
- inhibition at 10 µM (TK-10; TK-10, read-out: percent growth inhibition): -10.1%
- GI50 (NCI-H23; NCI-H23): 10.4 µM
- inhibition at 10 µM (NCI-H23; NCI-H23, read-out: percent growth inhibition): 26.2%
- GI50 (U251; U-251): 3.89 µM
- inhibition at 10 µM (U251; U-251, read-out: percent growth inhibition): 127%
- GI50 (HL-60(TB); HL-60): 3.99 µM
- inhibition at 10 µM (HL-60(TB); HL-60, read-out: percent growth inhibition): 52%
- GI50 (HCT-15; HCT-15): 3.31 µM
- inhibition at 10 µM (HCT-15; HCT-15, read-out: percent growth inhibition): 113%
- GI50 (A549/ATCC; A549): 24.6 µM
- inhibition at 10 µM (A549/ATCC; A549, read-out: percent growth inhibition): 30.5%
- GI50 (RXF 393; RXF 393): 10.9 µM
- inhibition at 10 µM (RXF 393; RXF 393, read-out: percent growth inhibition): 32.9%
- GI50 (BT-549; BT-549): 5.26 µM
- inhibition at 10 µM (BT-549; BT-549, read-out: percent growth inhibition): 66%
- GI50 (HOP-92; HOP-92): 15.5 µM
- inhibition at 10 µM (HOP-92; HOP-92, read-out: percent growth inhibition): 8.52%
- GI50 (MCF7; MCF7): 3.37 µM
- inhibition at 10 µM (MCF7; MCF7, read-out: percent growth inhibition): 90.5%
- GI50 (OVCAR-8; OVCAR-8): 2.98 µM
- inhibition at 10 µM (OVCAR-8; OVCAR-8, read-out: percent growth inhibition): 88.1%
- GI50 (SNB-75; SNB-75): 12.5 µM
- inhibition at 10 µM (SNB-75; SNB-75, read-out: percent growth inhibition): 32.3%
- GI50 (NCI-H460; NCI-H460): 4.18 µM
- inhibition at 10 µM (NCI-H460; NCI-H460, read-out: percent growth inhibition): 68%
- GI50 (SR): 1.51 µM
- inhibition at 10 µM (SR; [2]): 96.5%
- GI50 (M14; M14): 14 µM
- inhibition at 10 µM (M14; M14, read-out: percent growth inhibition): 54.7%
- GI50 (HCC-2998; HCC 2998): 13.9 µM
- inhibition at 10 µM (HCC-2998; HCC 2998, read-out: percent growth inhibition): 15.2%
- GI50 (UACC-62; UACC-62): 10.8 µM
- inhibition at 10 µM (UACC-62; UACC-62, read-out: percent growth inhibition): 48.7%
- GI50 (PC-3; PC-3): 12.7 µM
- inhibition at 10 µM (PC-3; PC-3, read-out: percent growth inhibition): 67.2%
- GI50 (NCI/ADR-RES): 3.72 µM
- GI50 (HS 578 T): 15.4 µM
- inhibition at 10 µM (HS 578 T; [2]): 47%
- GI50 (SNB-19; SNB-19): 12.4 µM
- inhibition at 10 µM (SNB-19; SNB-19, read-out: percent growth inhibition): 31.4%
